Measured values taken from ChEMBL document CHEMBL3612037, “Design and synthesis of some new pyrazolyl-pyrazolines as potential anti-inflammatory, analgesic and antibacterial agents” (Eur J Med Chem, 2015).
Activity calls are given as the source filed them. The rule behind the calls is not given here.

Tests used:
Rattus norvegicus [1] = experiment: Anti-inflammatory activity in Wistar rat assessed as inhibition of carrageenan-induced paw oedema at 50 mg/kg, po dosed 30 mins before carrageenan challenge and measured 30 mins post carrageenan challenge; assay type: functional
Rattus norvegicus [2] = experiment: Anti-inflammatory activity in Wistar rat assessed as inhibition of carrageenan-induced paw oedema at 50 mg/kg, po dosed 30 mins before carrageenan challenge and measured 60 mins post carrageenan challenge; assay type: functional
Rattus norvegicus [3] = experiment: Anti-inflammatory activity in Wistar rat assessed as inhibition of carrageenan-induced paw oedema at 50 mg/kg, po dosed 30 mins before carrageenan challenge and measured 120 mins post carrageenan challenge; assay type: functional
Rattus norvegicus [4] = experiment: Analgesic activity in Wistar rat assessed as tail flick latency time at 50 mg/kg, po measured 0 mins post dose by tail flick method (reference value: 3.5 +/- 0.8 secs); assay type: functional
Rattus norvegicus [5] = experiment: Analgesic activity in Wistar rat assessed as tail flick latency time at 50 mg/kg, po measured 30 mins post dose by tail flick method (reference value: 3.46 +/- 0.1 secs); assay type: functional
Rattus norvegicus [6] = experiment: Analgesic activity in Wistar rat assessed as tail flick latency time at 50 mg/kg, po measured 60 mins post dose by tail flick method (reference value: 3.47 +/- 0.1 secs); assay type: functional
Rattus norvegicus [7] = experiment: Analgesic activity in Wistar rat assessed as tail flick latency time at 50 mg/kg, po measured 90 mins post dose by tail flick method (reference value: 3.7 +/- 0.1 secs); assay type: functional
Mus musculus [8] = experiment: Acute toxicity in Swiss mouse assessed as induction of diarrhoea incidence at 100 to 1000 mg/kg, po measured 48 hrs post dose; assay type: organism-based; conditions: in vivo
Mus musculus [9] = experiment: Acute toxicity in Swiss mouse assessed as induction of depression incidence at 100 to 1000 mg/kg, po measured 48 hrs post dose; assay type: organism-based; conditions: in vivo
[10] = Acute toxicity in Swiss mouse at 100 to 1000 mg/kg, po measured 48 hrs post dose; assay type: organism-based; conditions: in vivo
Staphylococcus = experiment: Antimicrobial activity against Staphylococcus citreus at 20 uL of 1 mg/ml by disc diffusion assay; assay type: functional; conditions: for zone of inhibition at 1000 µg/mL: read-out: IZ
Staphylococcus aureus = experiment: Antimicrobial activity against Staphylococcus aureus at 20 uL of 1 mg/ml by disc diffusion assay; assay type: functional; conditions: for zone of inhibition at 1000 µg/mL: read-out: IZ
Aeromonas hydrophila = experiment: Antimicrobial activity against Aeromonas hydrophila at 20 uL of 1 mg/ml by disc diffusion assay; assay type: functional; conditions: for zone of inhibition at 1000 µg/mL: read-out: IZ
Escherichia coli = experiment: Antimicrobial activity against Escherichia coli at 20 uL of 1 mg/ml by disc diffusion assay; assay type: functional; conditions: for zone of inhibition at 1000 µg/mL: read-out: IZ

| Structure (SMILES) | inhibition in vivo at 50 mg/kg (Rattus norvegicus [1]) [%] | inhibition in vivo at 50 mg/kg (Rattus norvegicus [2]) [%] | inhibition in vivo at 50 mg/kg (Rattus norvegicus [3]) [%] | Time (Rattus norvegicus [4]) [s] | Time (Rattus norvegicus [5]) [s] | Time (Rattus norvegicus [6]) [s] | Time (Rattus norvegicus [7]) [s] | Activity (Mus musculus [8]) | Activity (Mus musculus [9]) | LD50 at 48 h [10] [mg/kg] | zone of inhibition at 1000 µg/mL (Staphylococcus) [mm] | zone of inhibition at 1000 µg/mL (Staphylococcus aureus) [mm] | zone of inhibition at 1000 µg/mL (Aeromonas hydrophila) [mm] | inhibition zone (IZ) (Escherichia coli) | inhibition zone (IZ) (Staphylococcus) | inhibition zone (IZ) (Staphylococcus aureus) | zone of inhibition at 1000 µg/mL (Escherichia coli) [mm] | inhibition zone (IZ) (Aeromonas hydrophila) |
| --- | --- | --- | --- | --- | --- | --- | --- | --- | --- | --- | --- | --- | --- | --- | --- | --- | --- | --- |
| Fc1ccc(C2=NNC(c3cn(-c4ccccc4)nc3-c3ccc(Cl)c(Cl)c3)C2)cc1 (configuration not stated) | 45.7 | 40.5 | 46.1 | 3.1 | 4.5 | 4.8 | 4.2 | Non-toxic | Non-toxic | 500 | 23 | 14 | 16 | inactive | – | – | – | – |
| CC(=O)N1N=C(c2ccc(F)cc2)CC1c1cn(-c2ccccc2)nc1-c1ccc(Cl)c(Cl)c1 (configuration not stated) | 45.7 | 59.5 | 72.7 | 3.5 | 6.8 | 6.5 | 6.6 | Non-toxic | Non-toxic | 500 | – | – | 19 | – | inactive | inactive | 12 | – |
| O=[N+]([O-])c1ccc(N2N=C(c3ccc(Cl)cc3)CC2c2cn(-c3ccccc3)nc2-c2ccc(Cl)c(Cl)c2)cc1 (configuration not stated) | 48.9 | 57.2 | 69.5 | 3.4 | 6.9 | 7 | 6.6 | Non-toxic | Non-toxic | 500 | 18 | 22 | 21 | – | – | – | 31 | – |
| Cc1ccc(C2=NNC(c3cn(-c4ccccc4)nc3-c3ccc(Cl)c(Cl)c3)C2)cc1 (configuration not stated) | 38.3 | 56.5 | 48.4 | 3.6 | 5.9 | 6.3 | 6.5 | Non-toxic | Non-toxic | 500 | – | 19 | 11 | – | inactive | – | 15 | – |
| Cc1ccc(C2=NN(C=O)C(c3cn(-c4ccccc4)nc3-c3ccc(Cl)c(Cl)c3)C2)cc1 (configuration not stated) | 35.1 | 53.4 | 60.9 | 3.4 | 4.7 | 4.6 | 4.4 | Non-toxic | Non-toxic | 500 | 16 | – | – | – | – | inactive | 20 | inactive |
| CCC(=O)N1N=C(c2ccc(C)cc2)CC1c1cn(-c2ccccc2)nc1-c1ccc(Cl)c(Cl)c1 (configuration not stated) | 29.8 | 61.1 | 70.3 | 3.3 | 5.3 | 6.4 | 5.9 | Non-toxic | Non-toxic | 500 | – | 24 | – | – | inactive | – | 22 | inactive |
| Cc1ccc(C2=NN(c3ccccc3)C(c3cn(-c4ccccc4)nc3-c3ccc(Cl)c(Cl)c3)C2)cc1 (configuration not stated) | 46.8 | 58.8 | 62.5 | 3.3 | 6.7 | 7.1 | 6.6 | Non-toxic | Non-toxic | 500 | – | 15 | 18 | – | inactive | – | 20 | – |
| O=CN1N=C(c2ccc(Cl)cc2)CC1c1cn(-c2ccccc2)nc1-c1ccc(Cl)c(Cl)c1 (configuration not stated) | 35.1 | 51.1 | 57.8 | 3 | 4.5 | 4.7 | 4.3 | Non-toxic | Non-toxic | 500 | 21 | 18 | – | inactive | – | – | – | inactive |
| CC(=O)N1N=C(c2ccc(Cl)cc2)CC1c1cn(-c2ccccc2)nc1-c1ccc(Cl)c(Cl)c1 (configuration not stated) | 45.7 | 57.2 | 66.4 | 3.5 | 5.5 | 5.9 | 5.1 | Non-toxic | Non-toxic | 500 | 13 | 21 | 19 | inactive | – | – | – | – |
| Cc1ccc(C2=NN(c3ccc([N+](=O)[O-])cc3)C(c3cn(-c4ccccc4)nc3-c3ccc(Cl)c(Cl)c3)C2)cc1 (configuration not stated) | 57.4 | 72.5 | 71.9 | 3.4 | 7 | 7.4 | 6.6 | Non-toxic | Non-toxic | 500 | 16 | 21 | 19 | – | – | – | 16 | – |
| O=[N+]([O-])c1ccc(N2N=C(c3ccc(F)cc3)CC2c2cn(-c3ccccc3)nc2-c2ccc(Cl)c(Cl)c2)cc1 (configuration not stated) | 45.7 | 60.3 | 65.6 | 3.8 | 5.1 | 5.7 | 5.2 | Non-toxic | Non-toxic | 500 | 21 | 20 | – | inactive | – | – | – | inactive |
| O=CN1N=C(c2ccc(F)cc2)CC1c1cn(-c2ccccc2)nc1-c1ccc(Cl)c(Cl)c1 (configuration not stated) | 37.2 | 56.5 | 60.9 | 3.5 | 6.3 | 6.4 | 6.6 | Non-toxic | Non-toxic | 500 | 18 | 13 | 10 | – | – | – | 12 | – |
| CC(=O)N1N=C(c2ccc(C)cc2)CC1c1cn(-c2ccccc2)nc1-c1ccc(Cl)c(Cl)c1 (configuration not stated) | 27.6 | 59.5 | 70.3 | 3.5 | 5.3 | 5.5 | 5.5 | Non-toxic | Non-toxic | 500 | – | 19 | – | – | inactive | – | 18 | inactive |
